Source: US20210147343A1 (priority 2018, published 2021)

Target: mu opioid receptor (MOR) (Homo sapiens, UniProt P35372)
Assay: MOR GTPγS agonist assay
Format: biochemical
Parameters: host or cells: CHO-K1
Details: membranes of CHO cells over-expressing MOR; SPA beads; read-out: MOR GTPγS EC50
Source text: Membranes obtained from the stable cell lines over-expressing MOR were subjected to GTPγS assay using SPA beads (Perkin Elmer, Cat #RPNQ0001).

Sequence of mu opioid receptor (MOR) (P35372 whole entry): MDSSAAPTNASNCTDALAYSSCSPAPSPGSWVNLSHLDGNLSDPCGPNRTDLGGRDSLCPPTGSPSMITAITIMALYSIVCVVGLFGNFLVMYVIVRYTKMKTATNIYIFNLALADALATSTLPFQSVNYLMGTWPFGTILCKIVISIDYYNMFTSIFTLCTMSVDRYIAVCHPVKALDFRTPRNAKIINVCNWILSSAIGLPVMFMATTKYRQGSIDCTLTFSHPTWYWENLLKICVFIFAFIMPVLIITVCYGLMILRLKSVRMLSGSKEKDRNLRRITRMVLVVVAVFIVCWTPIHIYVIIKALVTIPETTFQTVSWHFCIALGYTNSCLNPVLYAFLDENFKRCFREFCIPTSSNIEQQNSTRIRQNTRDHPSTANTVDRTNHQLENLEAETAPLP

Compound | EC50
CN(CC1CC1)[C@H](CNC(=O)c1ccc(Cl)c(Cl)c1)Cc1ccc2[nH]ncc2c1 [Compound C-62, (S)-3,4-dichloro-N-(2-((cyclopropylmethyl)(methyl)amino)-3-(1H-indazol-5-yl)propyl)benzamide] | 100 to 1000 nM
CN(C)[C@H](CNC(=O)c1ccc(Cl)c(F)c1)Cc1ccc(O)cc1Cl [Compound C-19] | 100 to 1000 nM
Cc1cc(O)cc(C)c1C[C@@H](CNC(=O)c1cccc(Cl)c1)N(C)C [Compound C-25] | < 100 nM
CNC(=O)c1cc(C)c(CC(CNC(=O)c2ccccc2C2CC2)N(C)C)c(C)c1 (centres unmarked) [Compound C-43] | < 100 nM
CN1Cc2cc(O)ccc2C[C@H]1CNC(=O)c1cccc(Cl)c1 [Compound C-36, (S)-3-chloro-N-((7-hydroxy-2-methyl-1,2,3,4-tetrahydroisoquinolin-3-yl)methyl)benzamide] | < 100 nM
CNC(=O)c1cc(C)c(C[C@@H](CNC(=O)c2cnccn2)N(C)C)c(C)c1 [Compound C-47, (S)—N-(3-(2,6-dimethyl-4-(methylcarbamoyl)phenyl)-2-(dimethylamino)propyl)pyrazine-2-carboxamide] | > 1000 nM
Cc1ccc(C(=O)NC[C@H](Cc2ccc3n[nH]cc3c2)N(C)C)c(C)c1 [Compound C-51] | 100 to 1000 nM
CNC(=O)c1cc(C)c(C[C@@H](CNC(=O)c2ccc(F)c(Cl)c2)N(C)C)c(C)c1 [Compound C-14] | < 100 nM
CN(CC(F)(F)F)[C@H](CNC(=O)c1ccc(Cl)c(Cl)c1)Cc1ccc2[nH]ncc2c1 [Compound C-63] | > 1000 nM
CNC(=O)c1cc(C)c(C[C@@H](CNC(=O)c2ccc(Cl)cc2Cl)N(C)C)c(C)c1 [Compound C-16] | < 100 nM
CN(C)[C@H](CNC(=O)c1ccc(Cl)c(F)c1)Cc1ccc2n[nH]cc2c1 [Compound C-65, (S)-4-chloro-N-(2-(dimethylamino)-3-(2H-indazol-5-yl)propyl)-3-fluorobenzamide] | < 100 nM
CNC(=O)c1cc(C)c(C[C@@H](CNC(=O)c2ccc(C)cc2C)N(C)C)c(C)c1 [Compound C-18] | < 100 nM
CN(C)[C@H](CNC(=O)c1ccc(Cl)cc1)Cc1ccc(O)cc1Cl [Compound C-21] | > 1000 nM
CNC(=O)c1cc(C)c(C[C@@H](CNC(=O)c2cc(Cl)cc(Cl)c2)N(C)C)c(C)c1 [Compound C-12] | < 100 nM
CN(C)[C@H](CNC(=O)c1ccc(Cl)c(Cl)c1)Cc1ccc2n[nH]cc2c1 [Compound C-4, (S)-3,4-dichloro-N-(2-(dimethylamino)-3-(1H-indazol-5-yl)propyl)benzamide] | < 100 nM
Cc1cnc(C(=O)NC[C@H](Cc2ccc3n[nH]cc3c2)N(C)C)c(C)c1 [Compound C-52] | > 1000 nM
CNC(=O)c1cc(C)c(C[C@@H](CNC(=O)c2ccccc2Cl)N(C)C)c(C)c1 [Compound C-10] | 100 to 1000 nM
CNC(=O)c1cc(C)c(C[C@@H](CNC(=O)c2ncc(C)cc2C)N(C)C)c(C)c1 [Compound C-49] | 100 to 1000 nM
Cc1cc(O)cc(C)c1C[C@@H](CNC(=O)c1ccc(Cl)c(F)c1)N(C)C [Compound C-6, (S)-4-chloro-N-(2-(dimethylamino)-3-(4-hydroxy-2,6-dimethylphenyl)propyl)-3-fluorobenzamide] | < 100 nM
CNC(=O)c1cc(C)c(C[C@@H](CNC(=O)c2ccc(Cl)cc2)N(C)C)c(C)c1 [Compound C-11] | < 100 nM
CN(C)[C@H](CNC(=O)c1cccc(Cl)c1)Cc1ccc(O)cc1 [Compound C-23, (S)-3-chloro-N-(2-(dimethylamino)-3-(4-hydroxyphenyl)propyl)benzamide] | 100 to 1000 nM
COc1ccc(C(=O)NC[C@H](Cc2c(C)cc(O)cc2C)N(C)C)cc1Cl [Compound C-5, (S)-3-chloro-N-(2-(dimethylamino)-3-(4-hydroxy-2,6-dimethylphenyl)propyl)-4-methoxybenzamide] | < 100 nM
CNC(=O)c1cc(C)c(C[C@@H](CNC(=O)c2ccc(Cl)cc2C)N(C)C)c(C)c1 [Compound C-15] | < 100 nM
